From PubChem BioAssay (NCI)
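Where inhibition never reached the appropriate level, the endpoint shown equals the highest concentration tested. Otherwise, values were interpolated linearly from a five-concentration, 48-hour dose response in 96-well plates. At the GI50, growth is halved. TGI: total growth inhibition.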

Legend:
Test in all cases: inhibition of tumour cell growth, NCI panel, 48 h
[1] = system: MDA-MB-468 breast
[2] = system: OVCAR-5 ovarian
[3] = system: SK-MEL-28 melanoma
[4] = system: HCT-15 colon
[5] = system: NCI-H226 lung
[6] = system: KM12 colon
[7] = system: CCRF-CEM leukemia
[8] = system: UO-31 renal
[9] = system: OVCAR-4 ovarian
[10] = system: MALME-3M melanoma
[11] = system: A498 renal
[12] = system: TK-10 renal
[13] = system: SNB-75 CNS
[14] = system: SF-295 CNS
[15] = system: OVCAR-3 ovarian
[16] = system: IGROV1 ovarian
[17] = system: UACC-257 melanoma
[18] = system: HOP-62 NSCLC
[19] = system: MDA-MB-435
[20] = system: UACC-62 melanoma
[21] = system: MDA-MB-231 breast
[22] = system: RPMI-8226 leukemia
[23] = system: EKVX NSCLC
[24] = system: SW-620 colon
[25] = system: PC-3 prostate
[26] = system: NCI-H23 lung
[27] = system: SNB-19 CNS
[28] = system: HOP-92 NSCLC
[29] = system: RXF 393 renal

Work on `C=CC[Se]C(=O)c1cncc(C(=O)[Se]CC=C)c1` yielded a GI50 [1] of 1800 nM, a TGI [1] of 3540 nM and a GI50 [2] of 1550 nM. It also gave a TGI [2] of 3160 nM, a GI50 [3] of 1710 nM and a TGI [3] of 3240 nM. For the same compound, the GI50 [4] was 1950 nM, the TGI [4] was 3810 nM and the GI50 [5] was 2880 nM. The TGI [5] was 10500 nM, the GI50 [6] was 1340 nM and the TGI [6] was 2760 nM. For the same compound, the GI50 [7] was 2420 nM, the TGI [7] was 7280 nM and the GI50 [8] was 1650 nM. For the same compound, the TGI [8] was 3030 nM, the GI50 [9] was 1990 nM and the TGI [9] was 3850 nM. The GI50 [10] was 1920 nM, the TGI [10] was 4860 nM and the GI50 [11] was 3570 nM. For the same compound, the TGI [11] was 47800 nM, the GI50 [12] was 1710 nM and the TGI [12] was 3140 nM. For the same compound, the GI50 [13] was 1030 nM, the TGI [13] was 2440 nM and the GI50 [14] was 261 nM. It also gave a TGI [14] of 756 nM, a GI50 [15] of 1890 nM and a TGI [15] of 3400 nM. For the same compound, the GI50 [16] was 544 nM, the TGI [16] was 1800 nM and the GI50 [17] was 1790 nM. The TGI [17] was 3350 nM, the GI50 [18] was 525 nM and the TGI [18] was 2230 nM. For the same compound, the GI50 [19] was 1880 nM, the TGI [19] was 3790 nM and the GI50 [20] was 1680 nM. For the same compound, the TGI [20] was 3720 nM, the GI50 [21] was 1800 nM and the TGI [21] was 4000 nM. For the same compound, the GI50 [22] was 2450 nM, the TGI [22] was 6380 nM and the GI50 [23] was 1460 nM. For the same compound, the TGI [23] was 3080 nM, the GI50 [24] was 1940 nM and the TGI [24] was 3680 nM. For the same compound, the GI50 [25] was 431 nM, the TGI [25] was 1530 nM and the GI50 [26] was 1390 nM. It also gave a TGI [26] of 2960 nM, a GI50 [27] of 386 nM and a TGI [27] of 1500 nM. For the same compound, the GI50 [28] was 3300 nM, the TGI [28] was 8930 nM and the GI50 [29] was 2170 nM. For the same compound, the TGI [29] was 5180 nM.
